This is an account of results in patent US12390536B2, “Antibody-drug complex containing toll-like receptor 7/8 dual agonist compound” (ASTELLAS PHARMA INC., priority 2022, dated 2025).

Each structure is given as a SMILES string. Counter-ions that a name gives are not always drawn.

One assay deals with T1, human TLR8 (Homo sapiens, UniProt Q9NR97).
T1 construct: expressed in transfected cells
T1 sequence (Q9NR97 27-1041): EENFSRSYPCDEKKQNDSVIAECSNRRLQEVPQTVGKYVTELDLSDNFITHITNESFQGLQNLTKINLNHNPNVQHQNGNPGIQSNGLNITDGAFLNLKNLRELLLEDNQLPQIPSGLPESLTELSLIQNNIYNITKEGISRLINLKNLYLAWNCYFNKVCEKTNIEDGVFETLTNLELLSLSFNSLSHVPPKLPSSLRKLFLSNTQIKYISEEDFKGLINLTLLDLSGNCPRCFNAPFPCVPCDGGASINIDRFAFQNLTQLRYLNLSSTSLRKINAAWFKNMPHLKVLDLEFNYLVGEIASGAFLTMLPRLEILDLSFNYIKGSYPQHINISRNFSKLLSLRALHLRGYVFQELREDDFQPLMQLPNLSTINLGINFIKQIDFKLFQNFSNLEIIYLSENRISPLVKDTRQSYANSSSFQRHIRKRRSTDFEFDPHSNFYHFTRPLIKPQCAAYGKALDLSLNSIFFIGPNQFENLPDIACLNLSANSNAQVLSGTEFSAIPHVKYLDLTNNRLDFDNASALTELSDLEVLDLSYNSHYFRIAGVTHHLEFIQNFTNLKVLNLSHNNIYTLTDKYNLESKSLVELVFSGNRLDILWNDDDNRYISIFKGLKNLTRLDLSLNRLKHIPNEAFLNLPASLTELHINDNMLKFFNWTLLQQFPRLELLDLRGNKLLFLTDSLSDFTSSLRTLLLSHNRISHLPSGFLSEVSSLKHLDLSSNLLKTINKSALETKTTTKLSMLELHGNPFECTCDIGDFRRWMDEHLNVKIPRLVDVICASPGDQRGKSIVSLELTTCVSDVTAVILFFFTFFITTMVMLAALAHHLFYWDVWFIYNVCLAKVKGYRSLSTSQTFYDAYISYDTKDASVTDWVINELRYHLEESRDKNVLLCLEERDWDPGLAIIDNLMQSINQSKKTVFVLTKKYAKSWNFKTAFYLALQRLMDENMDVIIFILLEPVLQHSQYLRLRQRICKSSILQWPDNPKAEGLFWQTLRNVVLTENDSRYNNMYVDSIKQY
The assay is described as follows: TLR7/8 reporter assay (HEK293, NFκB Nanoluc luciferase reporter), human TLR8. Format: cell-based. The conditions noted are these: 24-hour incubation; read-out: hTLR8 EC50. How it is done: HEK293 cells (ATCC, #CRL-1573) were co-transfected with an expression vector having a nucleotide sequence encoding a TLR (human TLR7, human TLR8 or mouse TLR7) protein and a Nanoluc PEST luciferase reporter vector having an NFκB response element sequence (Genbank: JQ513377 bases 33 to 84) integrated therein. Thereafter, the transfected cells were cultured in DMEM (Sigma-Aldrich, #D5796-500 mL) containing Geneticin (Gibco, #10131-027) at a final concentration of 800 μg/mL, Hygromycin B (Invitrogen, #10687010) at a final concentration of 500 μg/mL, penicillin streptomycin (Gibco, #15070-063) at a final concentration of 1% and a 10% fetal bovine serum (FBS) (HyClone, #SH30084.03) to obtain a stable cell line for expression.
To reporter cells obtained above, DMEM containing 10% FBS was added to prepare a suspension of 1×10^5 cells/mL. The suspension was added to the wells of a 384-well white plate coated with collagen I (hereinafter referred to as “384-well plate”, Corning, #356703) at a rate of 20 μL per well. The cells were cultured in the conditions of 37° C. and 5% CO2, overnight (18 hours) and allowed to adhere to the plate. A test sample was dissolved in DMSO. The solution was diluted by adding DMEM medium containing 10% FBS to the solution such that the concentration becomes 5-fold as high as a final concentration. The diluted DMEM medium was added to the wells of the 384-well plate at a ratio of 5 μL/well. After the medium was further incubated in the conditions of 37° C. and 5% CO2 for 24 hours, the plate was taken out and allowed to stand still at room temperature for 10 minutes. Thereafter, chemiluminescence was measured using Nano-Glo Luciferase Assay System (Promega, #N1120) and EnVision 2104 (PerkinElmer) plate reader. A dose-response curve was prepared for each test sample and the EC50 value was obtained as a concentration at 50% of the maximum signal. In the table, hTLR7 represents human TLR7 and hTLR8 represents human TLR8; and mTLR7 represents mouse TLR7. A data item attached with an asterisk (*) indicates the result of 7 hour-incubation and other data items are the results of 24-hour incubation.
Background: A reporter such as luciferase makes a cellular process visible.
As for `CCCCCNc1nc(N)nc2ccn(Cc3ccc(CN4CCNC[C@H]4CF)cc3OC)c12` [Ex1, 5-[(4-{[(2S)-2-(fluoromethyl)piperazin-1-yl]methyl}-2-methoxyphenyl)methyl]-N^4-pentyl-5H-pyrrolo[3,2-d]pyrimidine-2,4-diamine], the EC50 is 220 nM. On the same count and under the same terms, to `CCCCCNc1nc(N)nc2ccn(Cc3ccc(CN4CCN[C@@H](CF)C4)cc3OC)c12` [Ex2, 5-[(4-{[(3R)-3-(fluoromethyl)piperazin-1-yl]methyl}-2-methoxyphenyl)methyl]-N^4-pentyl-5H-pyrrolo[3,2-d]pyrimidine-2,4-diamine (trifluoroacetic acid) salt] belongs 1970 nM; to `CCCCCNc1nc(N)nc2ccn(Cc3ccc(CNC4CC4)cc3OC)c12` [Ex3, 5-({4-[(cyclopropylamino)methyl]-2-methoxyphenyl}methyl)-N^4-pentyl-5H-pyrrolo[3,2-d]pyrimidine-2,4-diamine], 2160 nM. On the same count and under the same terms, for `CCCCCSc1nc(N)nc2ccn(Cc3ccc(CN4CCNCC4)cc3OC)c12` [Ex4, 5-({2-methoxy-4-[(piperazin-1-yl)methyl]phenyl}methyl)-4-(pentylsulfanyl)-5H-pyrrolo[3,2-d]pyrimidin-2-amine] the value was 2480 nM; for `CCCCCSc1nc(N)nc2ccn(Cc3ccc(CN4CCC[C@H]4CO)cc3OC)c12` [Ex5, {(2S)-1-[(4-{[2-amino-4-(pentylsulfanyl)-5H-pyrrolo[3,2-d]pyrimidin-5-yl]methyl}-3-methoxyphenyl)methyl]pyrrolidin-2-yl}methanol], 11700 nM. In the case of `CCCCCNc1nc(N)nc2c(Cl)cn(Cc3ccc(CN4CCC[C@H]4CO)cc3OC)c12` [Ex6, {(2S)-1-[(4-{[2-amino-7-chloro-4-(pentylamino)-5H-pyrrolo[3,2-d]pyrimidin-5-yl]methyl}-3-methoxyphenyl)methyl]pyrrolidin-2-yl}methanol], the EC50 amounted to 964 nM.

Take `CCCCCNc1nc(N)nc2c(Br)cn(Cc3ccc(CN4CCC[C@H]4CO)cc3OC)c12` [Ex7, {(2S)-1-[(4-{[2-amino-7-bromo-4-(pentylamino)-5H-pyrrolo[3,2-d]pyrimidin-5-yl]methyl}-3-methoxyphenyl)methyl]pyrrolidin-2-yl}methanol]: the EC50 came out at 2000 nM. Take `CCCCCNc1nc(N)nc2cc(C)n(Cc3ccc(CN4CCNCC4)cc3OC)c12` [Ex8, 5-({2-methoxy-4-[(piperazin-1-yl)methyl]phenyl}methyl)-6-methyl-N^4-pentyl-5H-pyrrolo[3,2-d]pyrimidine-2,4-diamine hydrochloride]: the EC50 was determined as 2110 nM.

Turning to `CCCCCNc1nc(N)nc2ccn(Cc3ccc(CC4CCNCC4)cc3OC)c12` [Ex9, 5-({2-methoxy-4-[(piperidin-4-yl)methyl]phenyl}methyl)-N^4-pentyl-5H-pyrrolo[3,2-d]pyrimidine-2,4-diamine], the EC50 was found to be 1180 nM.

In the case of `CCCCCNc1nc(N)nc2ccn(Cc3ccc(CN4CCNC[C@@H]4CF)cc3OC)c12` [Ex10, 5-[(4-{[(2R)-2-(fluoromethyl)piperazin-1-yl]methyl}-2-methoxyphenyl)methyl]-N^4-pentyl-5H-pyrrolo[3,2-d]pyrimidine-2,4-diamine], the EC50 came to 716 nM. Take `COc1cc(CN2CCNC[C@H]2CF)ccc1Cn1ccc2nc(N)nc(SCc3cc(C)on3)c21` [Ex11]: the EC50 was found to be 13300 nM. As for `CCCCCSc1nc(N)nc2ccn(Cc3ccc(CN4CC[C@H]4CO)cc3OC)c12` [Ex13], the EC50 came out at 6220 nM. With `CCCCCSc1nc(N)nc2ccn(Cc3ccc(CN4CCC(O)CC4)cc3OC)c12` [Ex14], the EC50 stood at 6590 nM.

Consider `CCCCCSc1nc(N)nc2ccn(Cc3ccc(CN4CC[C@@H](CN)C4)cc3OC)c12` [Ex15], for which the EC50 came to 4880 nM. Turning to `CCCCCNc1nc(N)nc2c(Cl)cn(Cc3ccc(CN4CC[C@H]4CO)cc3OC)c12` [Ex17], the EC50 stood at 3740 nM.

On to `CCCCCNc1nc(N)nc2c(Cl)cn(Cc3ccc(CN4CCC[C@H]4C(C)(C)O)cc3OC)c12` [Ex18], for which the EC50 was determined as 3630 nM.

The same assay, now with this note: asterisk (*): 7 hour-incubation; read-out: hTLR8 EC50.
For the molecule `CCCCCNc1nc(N)nc2ccn(Cc3ccc(CNCC4CCC4)cc3OC)c12` [Ex12], the EC50 turned out to be 685 nM.

A word on the EC50: it is the concentration that produces a half-maximal response.
